Assay [1] relates to eukaryotic NOX. As to conditions: commercial molecules targeting the eukaryotic NOX; cited from earlier work.
Assay [2] relates to SpNox. The assay is described as follows: NADPH oxidase activity of SpNox by colorimetry (NBT reduction, 96-well plate). The note with it: absorbance at 560 nm, 5 concentrations 0.01-100 μM (DPI 0.005-50 μM), triplicate. The format is biochemical, Streptococcus pneumoniae. How it is done: The oxidase activity is determined by measuring the kinetics of reduction of NBT by the O2.^− ions, by monitoring the increase in absorbance at 560 nm (molar extinction coefficient of NBT: ε560=30 000 mM^−1.cm^−1). It is also possible to use a wavelength of 550 nm SpNox is incubated with a reaction mixture containing the molecule to be tested, NBT, FAD and the protein storage buffer for 5 to 20 min at 25° C. The reaction is then started by adding NADPH.
The NADPH oxidase activity is then quantified at the end point by determining the intensity of the coloration compared to a positive control. The positive control is carried out with the SpNox protein alone, without the molecule to be tested.
The compounds present in each well of the plate are, as final concentration: • 0.1 μg of SpNox; • 2 μM of FAD; • 125 μM of NBT; • 150 μM NADPH; • Molecule A; • SpNox storage buffer q.s. 200 μL.
All the experiments were carried out in triplicate and each molecule was tested at 5 different concentrations. The concentration range is deliberately wide so as to be able to include the possible IC50 values of each molecule. The concentrations selected are: 0.01-0.1-1-10-100 μM.

This is an account of results in patent US10533161B2, “NADPH oxidase proteins” (Universite Grenoble Alpes, priority 2014, dated 2020).

Entries after “also recorded” stand apart in the source; their conditions may differ.

`CCCCC/C=C\C/C=C\C/C=C\C/C=C\CCCC(=O)O` [Arachidonic acid (AA), Arachidonic acid]: in assay [1], the “Property (NADPH oxidase activity of the eukaryotic NOX)” value (“Property” below) is reported as “Activator”. For the same molecule, in assay [2], the “Effect on the NADPH oxidase activity of SpNox” value (from here on “Effect”) was “stimulates the production of superoxide; also recorded: activator of SpNox”.

On to `Oc1cc(O)c2c(c1)O[C@H](c1ccc(O)c(O)c1)[C@@H](O)C2` [Catechin], for which, in assay [1], the “Property” value is recorded as “Inhibitor”. Also, in assay [2], the “Effect” value is given as “inhibitors of SpNox”. Take `CC1=C(O)C(=O)C=C2C1=CC=C1[C@@]2(C)CC[C@@]2(C)[C@@H]3C[C@](C)(C(=O)O)CC[C@]3(C)CC[C@]12C` [Celastrol]: the “Property” value in assay [1] is “Inhibitor”. Further, the “Effect” value in assay [2] was “inhibitors of SpNox”. For the molecule `c1ccc2c(c1)[IH]c1ccccc1-2` [DPI, diphenyleneiodonium chloride], the “Property” value in assay [1] is “Inhibitor”. In addition, the “Effect” value in assay [2] was “inhibits the reaction; also recorded: inhibitory effect; also recorded: inhibitors of SpNox”. Consider `O=c1c2ccccc2[se]n1-c1ccccc1` [Ebselen], for which, in assay [1], the “Property” value was “Inhibitor”. Moreover, in assay [2], the “Effect” value is “inhibitors of SpNox”. `O=C(O[C@@H]1Cc2c(O)cc(O)cc2O[C@@H]1c1ccc(O)c(O)c1)c1cc(O)c(O)c(O)c1` [Epicatechin gallate]: the “Property” value in assay [1] is listed as “Inhibitor”. In assay [2], the “Effect” value is given as “inhibitors of SpNox”.

Take `Cc1ccccc1-n1sc2cc(F)ccc2c1=O` [Thr101]: the “Property” value in assay [1] is given as “Inhibitor”. Also, the “Effect” value in assay [2] is “inhibitors of SpNox”. For `c1ccc(Cn2nnc3c(Sc4nc5ccccc5o4)ncnc32)cc1` [VAS2870], the “Property” value in assay [1] is listed as “Inhibitor”.
